Legend:
Assay type in all cases: cell-based
AMPK-α1 AA mutant = biological target: T1, AMPK-α1 AA mutant (Homo sapiens, UniProt Q13131, K40A/K42A); test: AMPK activity of FLAG-tagged AMPK-α1 K40A/K42A (AA) mutant expressed in HEK293 cells; details: AA mutant FLAG-α1; same concentrations, 1 hr
T1 construct: Plasmid encoding full-length human AMPK-α1; expressed in transfected cells; host or cells: HEK293
From the text: (§1) (B) Western blotting of the same preparations as in (A). […] (D) Allosteric activation of WT and mutant α1β1γ1 complexes by MT 63-78, curve fitting as for (C). […] (E) Allosteric activation of WT and mutant α1β1γ1 complexes by AMP. Data were fitted to the equation for activation/inactivation by AMP ([Gowans et al., 2013]). […] (F) Activation of WT and AA mutant by various AMPK activators in HEK293 cells. […] FLAG-tagged complexes were isolated by immunoprecipitation and AMPK activity determined (mean ± SEM, n = 2).
(§2) We next expressed the FLAG-tagged WT or AA mutant of AMPK-α1 by transient transfection in HEK293 cells, treated with various agents, and measured AMPK activity in anti-FLAG immunoprecipitates. In Figure 4F, the results are expressed as absolute activities and are accompanied by blots showing Thr172 phosphorylation.

AMPK-α1 (WT) = biological target: T2, AMPK-α1 (WT) (Homo sapiens, UniProt Q13131); test: AMPK activity of FLAG-tagged AMPK-α1 (WT) expressed in HEK293 cells; details: 1 hr; for AMPK activity and Thr172 phosphorylation: WT FLAG-α1, A769662 300 μM, berberine 300 μM, phenformin 10 mM, troglitazone 100 μM, oligomycin 1 μM, SU6656 100 μM
T2 construct: we expressed FLAG-tagged full-length AMPK-α1 either as the WT or the AT mutant; expressed in transfected cells; host or cells: HEK293
From the text: as §1, §2
The α1-KD was precipitated using anti-FLAG and endogenous AMPK complexes using anti-α1 antibody, and activity determined. […] (B) Western blots (n = 2) using the indicated antibodies; samples from experiment in (A). (C) DNAs encoding FLAG-tagged AMPK-α1 (WT or AT mutant) were expressed by transient transfection in HEK293 cells, the cells treated with increasing concentrations of SU6656 for 1 hr, AMPK complexes precipitated with anti-FLAG, and activity measured.

[1] = biological target: T3, endogenous full-length α1 complexes (Homo sapiens, UniProt Q13131); test: Activity of endogenous full-length α1 complexes in HEK293 cells; details: 1 hr
T3 construct: endogenous in cells
From the text: (§3) We next expressed an FLAG-tagged α1 kinase domain (α1-KD, residues 1–312) by transient transfection in HEK293 cells, treated the cells with various AMPK activators, and then assayed both the expressed α1-KD (precipitated using anti-FLAG) and endogenous full-length α1 complexes (precipitated using anti-α1 antibodies recognizing an epitope outside the α1-KD). […] This was also observed with A23187, as expected since this ionophore increases intracellular Ca^2+ and activates the alternate upstream kinase CaMKK2.
(§4) The α1-KD was precipitated using anti-FLAG and endogenous AMPK complexes using anti-α1 antibody, and activity determined. Results (mean ± SD, n = 2) are expressed relative to activities in DMSO controls. (B) Western blots (n = 2) using the indicated antibodies; samples from experiment in (A). (C) DNAs encoding FLAG-tagged AMPK-α1 (WT or AT mutant) were expressed by transient transfection in HEK293 cells, the cells treated with increasing concentrations of SU6656 for 1 hr, AMPK complexes precipitated with anti-FLAG, and activity measured. Results (mean ± SD, n = 3) are expressed relative to the DMSO control. […] Results (mean ± SD, n = 3) are expressed relative to the DMSO control. **p < 0.01, ***p < 0.001, ****p < 0.0001, ^†††p < 0.001; ns, not significant.

[2] = biological target: T4, α1 kinase domain (α1-KD, residues 1–312) (Homo sapiens, UniProt Q13131); test: Activity of FLAG-tagged α1 kinase domain expressed in HEK293 cells; details: 1 hr
T4 construct: amplifying residues 1-312 with an N-terminal FLAG-tag; expressed in transfected cells; host or cells: HEK293 (transient transfection, pcDNA5 FRT)
From the text: as §3, §4
A plasmid encoding the AMPK-α2 kinase domain (α2-KD) was made by amplifying residues 1-310 with 5' BamH1 and 3' Xho1 sites, the resulting PCR product was cloned into pGEX6P2. Point mutations were generated using the Quikchange II site-directed mutagenesis kit (Stratagene) and confirmed by DNA sequencing.

AMPK-α1 AT mutant = biological target: T5, AMPK-α1 AT mutant (Homo sapiens, UniProt Q13131, A167T); test: AMPK activity of FLAG-tagged AMPK-α1 AT mutant expressed in HEK293 cells; details: AT mutant FLAG-α1, 1 hr
T5 construct: we expressed FLAG-tagged full-length AMPK-α1 either as the WT or the AT mutant; expressed in transfected cells; host or cells: HEK293 (transient transfection)
From the text: as §4
To confirm that it acted by binding at the catalytic site, we expressed FLAG-tagged full-length AMPK-α1 either as the WT or the AT mutant.

[3] = biological target: T6, human AMPK-α2 Y436F mutant (Homo sapiens, UniProt P54646, Y436F); test: AMPK activity of FLAG-tagged Y436F AMPK-α2 expressed in HEK293 cells; details: SU6656 100 μM, phenformin 10 mM, A23187 10 μM, 1 hr
T6 construct: expressed in transfected cells; host or cells: HEK293 (transient transfection)
Description: (§5) Top: AMPK activity (mean ± SEM, n = 4); bottom: western blots showing phosphorylation of Thr172 on AMPK, and of ERK1/2, in cells treated with DMSO (control), SU6656 (100 μM), or PP2 (100 nM) (n = 2). (B) As (A), but in SYF cells. (C) HeLa cells were transfected with DNAs encoding GFP alone, or GFP fused to WT, Y261F/Y365F (FF), or Y36F/Y261F/Y365F (FFF) mutants of LKB1; cells were treated with increasing concentrations of SU6656 for 1 hr and AMPK activity determined (mean ± SEM, n = 4). See also Figure S1. (D) HEK293 cells were transfected with DNAs encoding FLAG-tagged AMPK-α2 with or without a Y436F mutation. Cells were incubated with DMSO (control), 100 μM SU6656, 10 mM phenformin, or 10 μM A23187 for 1 hr; AMPK complexes were immunoprecipitated using anti-FLAG antibody and assayed. The top panels show kinase activities (mean ± SD, n = 3); the bottom panels show blots from the same experiment (n = 2). In all panels, asterisks indicate significant differences from DMSO controls; in (D), there were no significant differences between the WT and Y463F mutant. **p < 0.01, ****p < 0.0001.

human AMPK-α2 (WT) = human AMPK-α2 (WT) (Homo sapiens, UniProt P54646); test: AMPK activity of FLAG-tagged WT AMPK-α2 expressed in HEK293 cells; details: SU6656 100 μM, phenformin 10 mM, A23187 10 μM, 1 hr
Description: as §5

T2 sequence (Q13131 whole entry): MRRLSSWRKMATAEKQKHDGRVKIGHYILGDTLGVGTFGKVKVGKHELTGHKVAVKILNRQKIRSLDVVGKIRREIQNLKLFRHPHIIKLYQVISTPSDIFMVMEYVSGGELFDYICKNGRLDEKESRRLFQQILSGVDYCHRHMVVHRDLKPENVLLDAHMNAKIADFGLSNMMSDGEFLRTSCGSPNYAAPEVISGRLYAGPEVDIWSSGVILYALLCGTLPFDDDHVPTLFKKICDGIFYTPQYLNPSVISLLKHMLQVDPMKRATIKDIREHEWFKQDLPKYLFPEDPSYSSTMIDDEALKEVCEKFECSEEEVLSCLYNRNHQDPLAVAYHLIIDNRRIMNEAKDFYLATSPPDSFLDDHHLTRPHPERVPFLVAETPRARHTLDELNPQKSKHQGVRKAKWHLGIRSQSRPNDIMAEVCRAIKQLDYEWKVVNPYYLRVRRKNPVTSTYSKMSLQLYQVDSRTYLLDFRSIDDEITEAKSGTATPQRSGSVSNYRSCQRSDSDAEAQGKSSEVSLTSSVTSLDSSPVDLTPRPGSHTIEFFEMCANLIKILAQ
T2 sequence (P54619 whole entry partner): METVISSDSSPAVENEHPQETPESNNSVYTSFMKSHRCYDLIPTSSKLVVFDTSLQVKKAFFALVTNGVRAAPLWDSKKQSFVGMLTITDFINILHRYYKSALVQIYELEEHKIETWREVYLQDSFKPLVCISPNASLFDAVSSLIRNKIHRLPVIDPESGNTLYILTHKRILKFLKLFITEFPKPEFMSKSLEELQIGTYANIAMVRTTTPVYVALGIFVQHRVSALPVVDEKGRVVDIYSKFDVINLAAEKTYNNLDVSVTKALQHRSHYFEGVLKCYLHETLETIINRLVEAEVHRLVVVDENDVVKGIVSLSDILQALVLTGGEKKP
T1 sequence (Q13131 whole entry K40A/K42A): as the sequence (Q13131 whole entry) above, with K40A, K42A counted along it
T1 sequence (P54619 whole entry partner): as the sequence (P54619 whole entry partner) above
T3 sequence (Q13131 whole entry): as the sequence (Q13131 whole entry) above
T3 sequence (P54619 whole entry partner): as the sequence (P54619 whole entry partner) above
T4 sequence (Q13131 1-312): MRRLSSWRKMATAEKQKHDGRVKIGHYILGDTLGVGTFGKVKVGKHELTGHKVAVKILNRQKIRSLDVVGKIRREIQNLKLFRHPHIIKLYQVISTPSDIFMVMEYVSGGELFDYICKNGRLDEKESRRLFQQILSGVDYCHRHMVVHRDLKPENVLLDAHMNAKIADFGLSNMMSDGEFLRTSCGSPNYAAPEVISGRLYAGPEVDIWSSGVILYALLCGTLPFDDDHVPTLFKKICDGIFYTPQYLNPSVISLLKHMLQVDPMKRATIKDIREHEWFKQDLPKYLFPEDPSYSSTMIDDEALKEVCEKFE
T5 sequence (Q13131 whole entry A167T): as the sequence (Q13131 whole entry) above, with A167T counted along it
T5 sequence (P54619 whole entry partner): as the sequence (P54619 whole entry partner) above
human AMPK-α2 (WT), sequence (P54646 whole entry): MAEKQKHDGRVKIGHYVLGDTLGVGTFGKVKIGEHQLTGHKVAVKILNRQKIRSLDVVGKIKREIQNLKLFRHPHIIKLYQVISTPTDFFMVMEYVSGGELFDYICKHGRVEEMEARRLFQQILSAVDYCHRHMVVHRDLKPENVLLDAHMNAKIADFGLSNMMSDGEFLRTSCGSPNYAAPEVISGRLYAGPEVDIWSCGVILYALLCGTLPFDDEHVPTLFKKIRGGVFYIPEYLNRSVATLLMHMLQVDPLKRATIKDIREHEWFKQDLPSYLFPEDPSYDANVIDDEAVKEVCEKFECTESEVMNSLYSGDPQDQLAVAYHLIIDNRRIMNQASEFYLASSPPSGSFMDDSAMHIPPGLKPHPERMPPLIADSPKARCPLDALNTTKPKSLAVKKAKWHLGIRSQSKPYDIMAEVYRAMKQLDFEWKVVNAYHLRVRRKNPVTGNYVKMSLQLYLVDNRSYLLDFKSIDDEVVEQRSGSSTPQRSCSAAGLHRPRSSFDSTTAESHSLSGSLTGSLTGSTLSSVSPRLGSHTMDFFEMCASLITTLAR
human AMPK-α2 (WT), sequence (P54619 whole entry partner): as the sequence (P54619 whole entry partner) above
T6 sequence (P54646 whole entry Y436F): as the sequence (P54646 whole entry) above, with Y436F counted along it
T6 sequence (P54619 whole entry partner): as the sequence (P54619 whole entry partner) above

Row | SMILES | effect of AA mutation on AMPK activation (AMPK-α1 AA mutant) | AMPK activity and Thr172 phosphorylation (AMPK-α1 (WT)) | kinase activity / Thr172 phosphorylation [1] | kinase activity / Thr172 phosphorylation [2] | AMPK activity (AMPK-α1 AT mutant) | AMPK activation response with Y436F mutation [3] | AMPK activity (AMPK-α1 (WT); WT FLAG-α1 (comparison with AT mutant)) | AMPK activity in anti-FLAG immunoprecipitates (human AMPK-α2 (WT))
1 | CC[C@H]1/C=C/C=C/C[C@@H](C)[C@H](O)[C@@](C)(O)C(=O)[C@@H](C)[C@H](O)[C@@H](C)C(=O)[C@@H](C)[C@H](O)[C@@H](C)/C=C/C(=O)O[C@@H]2[C@H](C)[C@H](CC1)O[C@]1(CC[C@H](C)[C@H](C[C@@H](C)O)O1)[C@H]2C [oligomycin] | abolished | activated AMPK and caused Thr172 phosphorylation | – | – | – | – | – | –
2 | [H]/N=C(/N)N/C(=N/[H])NCCc1ccccc1 [phenformin] | abolished | activated AMPK and caused Thr172 phosphorylation | doing this with the endogenous complexes | failed to activate or cause Thr172 phosphorylation | activated equally well | unaffected by the Y436F mutation | activated equally well | all activated AMPK
3 | Cc1c(C)c2c(c(C)c1O)CCC(C)(COc1ccc(CC3SC(=O)NC3=O)cc1)O2 (centres unmarked) [troglitazone] | abolished | activated AMPK and caused Thr172 phosphorylation | doing this with the endogenous complexes | failed to activate or cause Thr172 phosphorylation | – | – | – | –

From paper PMC5522529, “Mechanisms of Paradoxical Activation of AMPK by the Kinase Inhibitors SU6656 and Sorafenib” (Cell Chemical Biology, 2017)
